Measured values published in ChEMBL document CHEMBL2417501, “Synthesis of 4-aminoquinoline-pyrimidine hybrids as potent antimalarials and their mode of action studies” (Eur J Med Chem, 2013).

Tests used:
Cytomegalovirus [1] = experiment: Antiviral activity against Cytomegalovirus Davis infected in human HEL cells assessed as reduction of plaque formation; type: functional, organism-based; conditions: Human betaherpesvirus 5, Davis
Plasmodium falciparum [2] = experiment: Antimalarial activity against chloroquine-resistant Plasmodium falciparum Dd2; type: functional, organism-based
Influenza A virus [3] = experiment: Antiviral activity against influenza A virus H1N1 subtype infected in dog MDCK cells assessed as reduction of virus-induced cytopathogenicity by MTS assay; type: functional, organism-based
Human respirovirus 3 = experiment: Antiviral activity against Parainfluenza-3 virus infected in african green monkey Vero cells assessed as reduction of virus-induced cytopathogenicity; type: functional, organism-based; conditions: Human respirovirus 3, Vero
[4] = Cytotoxicity against cat CRFK cells; type: cell-based, Felis catus
Human alphaherpesvirus 2 = experiment: Antiviral activity against Herpes simplex virus-2 G infected in human HEL cells assessed as reduction of virus-induced cytopathogenicity; type: functional, organism-based; conditions: Human alphaherpesvirus 2, strain G
Coxsackievirus [5] = experiment: Antiviral activity against Coxsackievirus B4 infected in african green monkey Vero cells assessed as reduction of virus-induced cytopathogenicity; type: functional, organism-based
[6] = Cytotoxicity against african green monkey Vero cells; type: cell-based; conditions: chlorocebus sabaeus
Human alphaherpesvirus 1 [7] = experiment: Antiviral activity against Herpes simplex virus-1 KOS infected in human HEL cells assessed as reduction of virus-induced cytopathogenicity; type: functional, organism-based; conditions: Human alphaherpesvirus 1, KOS
Influenza A virus [8] = experiment: Antiviral activity against influenza A virus […] subtype infected in dog MDCK cells assessed as reduction of virus-induced cytopathogenicity by MTS assay; type: functional, organism-based; conditions: read-out: EC50
Plasmodium falciparum [9] = experiment: Antimalarial activity against chloroquine-sensitive Plasmodium falciparum D10 by two-fold dilution technique; type: functional, organism-based
[10] = Cytotoxicity against human HeLa cells; type: cell-based
Human alphaherpesvirus 3 [11] = experiment: Antiviral activity against TK-positive Varicella-zoster virus OKA infected in human HEL cells assessed as reduction of plaque formation; type: functional, cell-based; conditions: Human alphaherpesvirus 3, strain Oka vaccine
Cytomegalovirus [12] = experiment: Antiviral activity against Cytomegalovirus AD-169 infected in human HEL cells assessed as reduction of plaque formation; type: functional, organism-based; conditions: Human betaherpesvirus 5, AD-169, HEL
Influenza B virus = experiment: Antiviral activity against influenza B virus infected in dog MDCK cells assessed as reduction of virus-induced cytopathogenicity by MTS assay; type: functional, organism-based
[13] = Selectivity index, ratio of CC50 for MDCK cells to IC50 for chloroquine-resistant Plasmodium falciparum Dd2; type: functional
Feline coronavirus = experiment: Antiviral activity against Feline coronavirus infected in cat CRFK cells assessed as reduction of virus-induced cytopathogenicity by MTS assay; type: functional, organism-based; conditions: Alphacoronavirus 1, CRFK
[14] = system: Vesicular stomatitis virus; experiment: Antiviral activity against Vesicular stomatitis virus infected in human HEL cells assessed as reduction of virus-induced cytopathogenicity; type: functional, organism-based
[15] = system: Vesicular stomatitis virus; experiment: Antiviral activity against Vesicular stomatitis virus infected in human HeLa cells assessed as reduction of virus-induced cytopathogenicity; type: functional, organism-based
Coxsackievirus [16] = experiment: Antiviral activity against Coxsackievirus B4 infected in human HeLa cells assessed as reduction of virus-induced cytopathogenicity; type: functional, organism-based
Felid alphaherpesvirus 1 = experiment: Antiviral activity against feline herpesvirus infected in cat CRFK cells assessed as reduction of virus-induced cytopathogenicity by MTS assay; type: functional, organism-based; conditions: Felid alphaherpesvirus 1, CRFK
[17] = system: Mammalian orthoreovirus 1; experiment: Antiviral activity against Reovirus-1 infected in african green monkey Vero cells assessed as reduction of virus-induced cytopathogenicity; type: functional, organism-based; conditions: Mammalian orthoreovirus 1, Vero
MDCK = experiment: (§1) Cytotoxicity against MDCK cells assessed as cell viability after 4 days by MTS assay; type: cell-based, Canis lupus familiaris; conditions: dog, mdck, 96 h
[18] = as §1; type: cell-based, Canis lupus familiaris; conditions: dog, MDCK cells
Punta Toro virus = experiment: Antiviral activity against […] infected in african green monkey Vero cells assessed as reduction of virus-induced cytopathogenicity; type: functional, organism-based
[19] = Inhibition of beta-hematin formation at 1 mg/ml; type: functional
Human alphaherpesvirus 1 [20] = experiment: Antiviral activity against TK-negative Herpes simplex virus 1 KOS infected in human HEL cells assessed as reduction of virus-induced cytopathogenicity; type: functional, organism-based; conditions: Human alphaherpesvirus 1, KOS
Sindbis virus = experiment: Antiviral activity against Sindbis virus infected in african green monkey Vero cells assessed as reduction of virus-induced cytopathogenicity; type: functional, organism-based
[21] = Cytotoxicity against human HEL cells; type: cell-based
Human alphaherpesvirus 3 [22] = experiment: Antiviral activity against […] Varicella-zoster virus 07-1 infected in human HEL cells assessed as reduction of plaque formation; type: functional, organism-based; conditions: Human alphaherpesvirus 3, 07-1, HEL
[23] = system: Respiratory syncytial virus; experiment: Antiviral activity against Respiratory syncytial virus infected in human HeLa cells assessed as reduction of virus-induced cytopathogenicity; type: functional, organism-based

Row | SMILES | EC50 (Cytomegalovirus [1]) | IC50 (Plasmodium falciparum [2]) | EC50 (Influenza A virus [3]) | EC50 (Human respirovirus 3) | EC50 (Human alphaherpesvirus 2) | EC50 (Coxsackievirus [5]) | MCC [6] | EC50 (Human alphaherpesvirus 1 [7]) | EC50 (Influenza A virus [8]) | IC50 (Plasmodium falciparum [9]) | MCC [10] | EC50 (Human alphaherpesvirus 3 [11]) | EC50 (Cytomegalovirus [12]) | EC50 (Influenza B virus) | EC50 (Feline coronavirus) | EC50 [14] | EC50 [15] | EC50 (Coxsackievirus [16]) | EC50 (Felid alphaherpesvirus 1) | MCC at 96 h [18] | other results
1 | COC(=O)c1c(C)nc(NCCCNc2ccnc3cc(Cl)ccc23)nc1-c1ccccc1 | 15.3 µM | 0.542 µM | > 0.16 µM | > 4 µM | > 20 µM | > 4 µM | 20 µM | > 20 µM | > 0.16 µM | 0.659 µM | 100 µM | > 4 µM | 10.9 µM | > 0.16 µM | 1.1 µM | > 20 µM | > 20 µM | > 20 µM | > 20 µM | 800 nM | CC50 ([4]; crfk): 25.1 µM; Ratio CC50/IC50 [13]: 3.13; EC50 [17]: > 4 µM; CC50 (MDCK): 1.7 µM; EC50 (Punta Toro virus): > 4 µM; inhibition [19]: 46%; EC50 (Human alphaherpesvirus 1 [20]): > 20 µM; EC50 (Sindbis virus): > 4 µM; MCC [21]: ≥ 20 µM; EC50 (Human alphaherpesvirus 3 [22]): > 4 µM; EC50 [23]: > 20 µM
2 | CCOC(=O)c1c(C)nc(NCCCCNc2ccnc3cc(Cl)ccc23)nc1-c1ccccc1[N+](=O)[O-] | > 4 µM |  | > 0.16 µM | > 0.8 µM | > 4 µM | > 0.8 µM | 4 µM | > 4 µM | > 0.16 µM | 1.46 µM | 100 µM | > 4 µM | > 4 µM | > 0.16 µM | 9 µM | > 4 µM | > 20 µM | > 20 µM | > 100 µM | 800 nM | CC50 ([4]; crfk): > 100 µM; EC50 [17]: > 0.8 µM; CC50 (MDCK): 0.8 µM; EC50 (Punta Toro virus): > 0.8 µM; inhibition [19]: 49%; EC50 (Human alphaherpesvirus 1 [20]): > 4 µM; EC50 (Sindbis virus): > 0.8 µM; MCC [21]: 20 µM; EC50 (Human alphaherpesvirus 3 [22]): > 4 µM; EC50 [23]: > 20 µM
3 | C[C@H]1[C@H](OC(=O)CCC(=O)O)O[C@@H]2O[C@@]3(C)CC[C@H]4[C@H](C)CC[C@@H]1[C@@]24OO3 [ARTESUNATE] |  | 0.0312 µM |  |  |  |  |  |  |  |  |  |  |  |  |  |  |  |  |  |  | 
4 | CCOC(=O)c1cnc(NCCCCNc2ccnc3cc(Cl)ccc23)nc1C | > 20 µM | 0.336 µM | > 4 µM | > 20 µM | > 100 µM | > 20 µM | 100 µM | > 100 µM | > 4 µM | 0.211 µM | 100 µM | > 20 µM | > 20 µM | > 4 µM | > 100 µM | > 100 µM | > 20 µM | > 20 µM | > 100 µM | ≥ 4000 nM | CC50 ([4]; CRFK cells): > 100 µM; Ratio CC50/IC50 [13]: 30.65; EC50 [17]: > 20 µM; CC50 at 96 h [18]: 10.3 µM; EC50 (Punta Toro virus): > 20 µM; inhibition [19]: 58%; EC50 (Human alphaherpesvirus 1 [20]): > 100 µM; EC50 (Sindbis virus): > 20 µM; MCC [21]: ≥ 100 µM; EC50 (Human alphaherpesvirus 3 [22]): > 20 µM; EC50 [23]: > 20 µM
5 | CC(N)C12CC3CC(CC(C3)C1)C2 (stereo unspecified) [RIMANTADINE] |  |  | 6.4 µM |  |  |  |  |  | 0.01 µM |  |  |  |  | > 200 µM |  |  |  |  |  | > 200000 nM | 
